From ChEMBL document CHEMBL1144685, “Naphthamides as novel and potent vascular endothelial growth factor receptor tyrosine kinase inhibitors: design, synthesis, and evaluation” (J Med Chem, 2008)

Key:
[1] = Intrinsic clearance in rat liver microsomes; type: ADME, Microsome
[2] = Intrinsic clearance in human liver microsomes; type: ADME, Microsome
[3] = Clearance in Sprague-Dawley rat at 2 mg/kg, iv; type: ADME, organism-based; design: dose 2 mg/kg, route intravenous; conditions: in vivo
[4] = Oral bioavailability in Sprague-Dawley rat at 5 mg/kg; type: ADME, organism-based; conditions: in vivo
Liver microsomes = experiment: Metabolic stability assessed as covalent binding in human liver microsomes; type: ADME, Microsome
[5] = Protein binding in rat plasma; type: ADME, cell-free; conditions: read-out: PPB (converted)
[6] = Protein binding in mouse plasma; type: ADME, cell-free; conditions: read-out: PPB (converted)
[7] = Protein binding in dog plasma; type: ADME, cell-free, Canis lupus familiaris; conditions: read-out: PPB (converted)
[8] = target: Macrophage colony-stimulating factor 1 receptor (Homo sapiens, UniProt P07333); experiment: Inhibition of c-FMS
[9] = target: Fibroblast growth factor receptor 2 (Homo sapiens, UniProt P21802); experiment: Inhibition of FGFR2
Aurora kinase B = Aurora kinase B (Homo sapiens, UniProt Q96GD4); experiment: Inhibition of Aurora B
[10] = target: Serine/threonine-protein kinase B-raf (Homo sapiens, UniProt P15056, V600E); experiment: Inhibition of b-Raf V600E
NIH3T3 = experiment: Inhibition of CSF1-induced proliferation of BALB/c mouse 3T3 cells; type: functional, cell-based
NHDF = experiment: Inhibition of PDGF-induced proliferation of NHDF cells; type: functional, cell-based; conditions: Homo sapiens
HUVEC [11] = experiment: Inhibition of FGF-induced proliferation of HUVEC cells; type: functional, cell-based; conditions: Homo sapiens
[12] = Inhibition of anti-CD3-induced proliferation of human T cells; type: functional, cell-based; conditions: T-cell
Plasma [13] = experiment: Plasma concentration in BALB/c mouse at 3 mg/kg, po; type: ADME, organism-based; design: dose 3 mg/kg, route oral; conditions: in vivo
Plasma [14] = experiment: Plasma concentration in BALB/c mouse at 10 mg/kg, po; type: ADME, organism-based; design: dose 10 mg/kg, route oral; conditions: in vivo
Plasma [15] = experiment: Plasma concentration in BALB/c mouse at 30 mg/kg, po; type: ADME, organism-based; design: dose 30 mg/kg, route oral; conditions: in vivo
Plasma [16] = experiment: Plasma concentration in CD1 nu/nu mouse at 30 mg/kg, po; type: ADME, organism-based; design: dose 30 mg/kg, route oral; conditions: in vivo
Plasma [17] = experiment: Plasma concentration in CD1 nu/nu mouse at 100 mg/kg, po; type: ADME, organism-based; design: dose 100 mg/kg, route oral; conditions: in vivo
Rattus norvegicus = experiment: Inhibition of VEGF-induced angiogenesis in VEGF soaked disk implanted Sprague-Dawley rat cornea assessed as number of blood vessels intersecting the midpoint between the disk and limbus after 7 days; type: functional; conditions: 168 h
[18] = AUC in VEGF soaked disk implanted Sprague-Dawley rat; type: ADME, organism-based; conditions: plasma
[19] = Cmax in VEGF soaked disk implanted Sprague-Dawley rat; type: ADME, organism-based; conditions: in vivo
Mus musculus = experiment: Antitumor activity against human HT29 cell xenografted CD1 nu/nu mouse assessed as inhibition of tumor growth at 3 mg/kg, po; type: functional; conditions: CD1, HT-29
[20] = AUC (0 to 24 hrs) in human HT29 cell xenografted CD1 nu/nu mouse at 3 mg/kg, po; type: ADME, organism-based, HT-29; design: time < 24 hr, dose 3 mg/kg, route oral; conditions: in vivo
[21] = AUC (0 to 24 hrs) in human HT29 cell xenografted CD1 nu/nu mouse at 10 mg/kg, po; type: ADME, organism-based, HT-29; design: time < 24 hr, dose 10 mg/kg, route oral; conditions: in vivo
[22] = AUC (0 to 24 hrs) in human HT29 cell xenografted CD1 nu/nu mouse at 30 mg/kg, po; type: ADME, organism-based, HT-29; design: time < 24 hr, dose 30 mg/kg, route oral; conditions: in vivo
[23] = Cmax in human HT29 cell xenografted CD1 nu/nu mouse at 3 mg/kg, po; type: ADME, organism-based, HT-29; design: dose 3 mg/kg, route oral; conditions: in vivo
[24] = Cmax in human HT29 cell xenografted CD1 nu/nu mouse at 10 mg/kg, po; type: ADME, organism-based, HT-29; design: dose 10 mg/kg, route oral; conditions: in vivo
[25] = Cmax in human HT29 cell xenografted CD1 nu/nu mouse at 30 mg/kg, po; type: ADME, organism-based, HT-29; design: dose 30 mg/kg, route oral; conditions: in vivo
[26] = Volume of distribution at steady state in Sprague-Dawley rat at 2 mg/kg, iv; type: ADME, organism-based; design: dose 2 mg/kg, route intravenous; conditions: in vivo, read-out: Vdss
[27] = Half life in Sprague-Dawley rat at 2 mg/kg, iv; type: ADME, organism-based; design: dose 2 mg/kg, route intravenous; conditions: in vivo
[28] = Mean retention time in Sprague-Dawley rat at 2 mg/kg, iv; type: ADME, organism-based; design: dose 2 mg/kg, route intravenous; conditions: in vivo
[29] = Cmax in Sprague-Dawley rat at 5 mg/kg, po; type: ADME, organism-based; design: dose 5 mg/kg, route oral; conditions: in vivo
[30] = AUC (0 to 24 hrs) in Sprague-Dawley rat at 5 mg/kg, po; type: ADME, organism-based; design: time < 24 hr, dose 5 mg/kg, route oral; conditions: plasma
[31] = Inhibition of histone H3 phosphorylation in human HeLa cells; type: cell-based
[32] = Inhibition of Erk phosphorylation in human A375 cells; type: cell-based; conditions: A-375
Cytochrome P450 3A4 = Cytochrome P450 3A4 (Homo sapiens, UniProt P08684)
Cytochrome P450 2D6 = Cytochrome P450 2D6 (Homo sapiens, UniProt P10635)
[33] = target: Tyrosine-protein kinase Lck (Homo sapiens, UniProt P06239)
[34] = target: Vascular endothelial growth factor receptor 1 (Homo sapiens, UniProt P17948)
[35] = target: Vascular endothelial growth factor receptor 3 (Homo sapiens, UniProt P35916)
HUVEC [36] = experiment: cells; conditions: Homo sapiens
Description: Inhibition of bFGF-induced proliferation of HUVEC cells

[37] = Clearance in mouse at 3 mg/kg, iv; type: ADME, organism-based; design: dose 3 mg/kg, route intravenous; conditions: in vivo
[38] = Volume of distribution at steady state in mouse at 3 mg/kg, iv; type: ADME, organism-based; design: dose 3 mg/kg, route intravenous; conditions: in vivo, read-out: Vdss
[39] = Half life in mouse at 3 mg/kg, iv; type: ADME, organism-based; design: dose 3 mg/kg, route intravenous; conditions: in vivo
[40] = Mean retention time in mouse at 3 mg/kg, iv; type: ADME, organism-based; design: dose 3 mg/kg, route intravenous; conditions: in vivo
[41] = Oral bioavailability in mouse at 10 mg/kg, po; type: ADME, organism-based; conditions: in vivo
[42] = Clearance in dog at 1 mg/kg, iv; type: ADME, organism-based, Canis lupus familiaris; design: dose 1 mg/kg, route intravenous; conditions: in vivo
[43] = Volume of distribution at steady state in dog at 1 mg/kg, iv; type: ADME, organism-based, Canis lupus familiaris; design: dose 1 mg/kg, route intravenous; conditions: in vivo, read-out: Vdss
[44] = Half life in dog at 1 mg/kg, iv; type: ADME, organism-based, Canis lupus familiaris; design: dose 1 mg/kg, route intravenous; conditions: in vivo
[45] = Mean retention time in dog at 1 mg/kg, iv; type: ADME, organism-based, Canis lupus familiaris; design: dose 1 mg/kg, route intravenous; conditions: in vivo
[46] = Oral bioavailability in dog at 10 mg/kg; type: ADME, organism-based, Canis lupus familiaris; conditions: in vivo
[47] = Clearance in cynomolgus monkey at 1 mg/kg, iv; type: ADME, organism-based, Macaca fascicularis; design: dose 1 mg/kg, route intravenous; conditions: in vivo
[48] = Volume of distribution at steady state in cynomolgus monkey at 1 mg/kg, iv; type: ADME, organism-based, Macaca fascicularis; design: dose 1 mg/kg, route intravenous; conditions: in vivo, read-out: Vdss
[49] = Half life in cynomolgus monkey at 1 mg/kg, iv; type: ADME, organism-based, Macaca fascicularis; design: dose 1 mg/kg, route intravenous; conditions: in vivo
[50] = Mean retention time in cynomolgus monkey at 1 mg/kg, iv; type: ADME, organism-based, Macaca fascicularis; design: dose 1 mg/kg, route intravenous; conditions: in vivo
[51] = Oral bioavailability in cynomolgus monkey at 10 mg/kg, po; type: ADME, organism-based, Macaca fascicularis; conditions: in vivo

Sequence of Tyrosine-protein kinase Lck (P06239 whole entry): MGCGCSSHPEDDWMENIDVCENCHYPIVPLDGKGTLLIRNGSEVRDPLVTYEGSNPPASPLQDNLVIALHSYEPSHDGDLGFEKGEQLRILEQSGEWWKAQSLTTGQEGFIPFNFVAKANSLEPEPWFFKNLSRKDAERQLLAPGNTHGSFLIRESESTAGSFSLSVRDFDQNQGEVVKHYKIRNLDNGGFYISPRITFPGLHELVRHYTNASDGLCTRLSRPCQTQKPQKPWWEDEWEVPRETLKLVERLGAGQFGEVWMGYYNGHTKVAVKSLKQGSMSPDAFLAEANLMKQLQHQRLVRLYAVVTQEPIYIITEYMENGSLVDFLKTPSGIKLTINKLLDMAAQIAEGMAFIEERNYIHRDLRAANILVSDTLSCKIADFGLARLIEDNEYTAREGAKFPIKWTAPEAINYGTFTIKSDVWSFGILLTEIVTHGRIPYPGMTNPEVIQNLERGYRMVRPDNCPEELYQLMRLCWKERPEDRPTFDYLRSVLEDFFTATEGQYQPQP
Sequence of Vascular endothelial growth factor receptor 3 (P35916 whole entry): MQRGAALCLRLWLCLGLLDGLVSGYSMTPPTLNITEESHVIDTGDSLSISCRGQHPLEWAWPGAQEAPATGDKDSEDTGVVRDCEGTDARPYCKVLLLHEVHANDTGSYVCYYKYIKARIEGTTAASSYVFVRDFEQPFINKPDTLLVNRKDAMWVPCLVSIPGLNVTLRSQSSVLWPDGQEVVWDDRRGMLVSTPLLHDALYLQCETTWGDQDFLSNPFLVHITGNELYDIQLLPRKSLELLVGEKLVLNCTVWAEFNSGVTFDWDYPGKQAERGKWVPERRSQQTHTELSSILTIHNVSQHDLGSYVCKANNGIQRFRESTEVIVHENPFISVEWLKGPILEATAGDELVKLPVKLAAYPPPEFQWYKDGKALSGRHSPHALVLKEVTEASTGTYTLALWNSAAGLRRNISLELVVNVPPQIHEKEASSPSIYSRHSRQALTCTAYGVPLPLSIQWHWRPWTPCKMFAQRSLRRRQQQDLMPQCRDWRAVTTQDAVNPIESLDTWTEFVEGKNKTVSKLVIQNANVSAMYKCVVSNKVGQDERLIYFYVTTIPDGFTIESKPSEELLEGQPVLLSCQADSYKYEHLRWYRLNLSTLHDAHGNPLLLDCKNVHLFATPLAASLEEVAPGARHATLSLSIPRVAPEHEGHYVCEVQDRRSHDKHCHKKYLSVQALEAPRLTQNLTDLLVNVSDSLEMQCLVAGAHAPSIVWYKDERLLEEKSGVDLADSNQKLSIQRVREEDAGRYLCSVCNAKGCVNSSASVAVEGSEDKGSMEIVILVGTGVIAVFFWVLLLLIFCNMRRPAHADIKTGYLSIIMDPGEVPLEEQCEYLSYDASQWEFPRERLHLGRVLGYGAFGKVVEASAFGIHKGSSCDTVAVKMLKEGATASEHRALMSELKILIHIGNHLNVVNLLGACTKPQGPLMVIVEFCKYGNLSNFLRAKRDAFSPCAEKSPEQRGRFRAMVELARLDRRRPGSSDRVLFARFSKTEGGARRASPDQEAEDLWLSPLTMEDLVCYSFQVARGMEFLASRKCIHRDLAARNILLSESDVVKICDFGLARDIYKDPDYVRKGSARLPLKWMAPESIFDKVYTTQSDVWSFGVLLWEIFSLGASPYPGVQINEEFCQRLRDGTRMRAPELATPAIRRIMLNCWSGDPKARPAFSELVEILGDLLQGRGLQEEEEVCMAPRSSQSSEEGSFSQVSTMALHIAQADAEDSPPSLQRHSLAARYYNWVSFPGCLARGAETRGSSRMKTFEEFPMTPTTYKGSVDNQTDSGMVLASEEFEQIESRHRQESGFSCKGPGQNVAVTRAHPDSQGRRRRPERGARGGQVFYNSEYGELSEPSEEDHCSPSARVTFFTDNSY
Sequence of Fibroblast growth factor receptor 2 (P21802 whole entry): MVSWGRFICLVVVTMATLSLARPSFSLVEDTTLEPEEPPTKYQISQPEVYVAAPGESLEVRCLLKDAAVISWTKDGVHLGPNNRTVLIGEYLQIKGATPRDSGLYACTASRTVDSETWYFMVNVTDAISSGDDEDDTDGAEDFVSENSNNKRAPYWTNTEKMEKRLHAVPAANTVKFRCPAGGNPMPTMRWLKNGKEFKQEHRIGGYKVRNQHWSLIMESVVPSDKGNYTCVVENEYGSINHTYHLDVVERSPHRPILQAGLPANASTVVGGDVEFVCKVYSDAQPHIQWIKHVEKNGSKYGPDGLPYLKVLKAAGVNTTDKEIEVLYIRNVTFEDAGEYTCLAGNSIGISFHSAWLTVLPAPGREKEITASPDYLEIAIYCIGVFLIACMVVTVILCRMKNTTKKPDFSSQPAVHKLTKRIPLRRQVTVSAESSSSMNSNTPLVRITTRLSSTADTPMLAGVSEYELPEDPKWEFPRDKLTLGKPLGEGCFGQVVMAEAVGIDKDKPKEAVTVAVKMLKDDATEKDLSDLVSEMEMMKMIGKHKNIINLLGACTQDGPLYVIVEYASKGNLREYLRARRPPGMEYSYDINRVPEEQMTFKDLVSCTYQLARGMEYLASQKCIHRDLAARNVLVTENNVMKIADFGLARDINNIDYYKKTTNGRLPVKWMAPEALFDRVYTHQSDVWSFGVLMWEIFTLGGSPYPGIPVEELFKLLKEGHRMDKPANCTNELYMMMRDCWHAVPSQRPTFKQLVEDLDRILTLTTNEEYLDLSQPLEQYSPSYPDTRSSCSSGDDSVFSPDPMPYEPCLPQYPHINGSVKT
Sequence of Vascular endothelial growth factor receptor 1 (P17948 whole entry): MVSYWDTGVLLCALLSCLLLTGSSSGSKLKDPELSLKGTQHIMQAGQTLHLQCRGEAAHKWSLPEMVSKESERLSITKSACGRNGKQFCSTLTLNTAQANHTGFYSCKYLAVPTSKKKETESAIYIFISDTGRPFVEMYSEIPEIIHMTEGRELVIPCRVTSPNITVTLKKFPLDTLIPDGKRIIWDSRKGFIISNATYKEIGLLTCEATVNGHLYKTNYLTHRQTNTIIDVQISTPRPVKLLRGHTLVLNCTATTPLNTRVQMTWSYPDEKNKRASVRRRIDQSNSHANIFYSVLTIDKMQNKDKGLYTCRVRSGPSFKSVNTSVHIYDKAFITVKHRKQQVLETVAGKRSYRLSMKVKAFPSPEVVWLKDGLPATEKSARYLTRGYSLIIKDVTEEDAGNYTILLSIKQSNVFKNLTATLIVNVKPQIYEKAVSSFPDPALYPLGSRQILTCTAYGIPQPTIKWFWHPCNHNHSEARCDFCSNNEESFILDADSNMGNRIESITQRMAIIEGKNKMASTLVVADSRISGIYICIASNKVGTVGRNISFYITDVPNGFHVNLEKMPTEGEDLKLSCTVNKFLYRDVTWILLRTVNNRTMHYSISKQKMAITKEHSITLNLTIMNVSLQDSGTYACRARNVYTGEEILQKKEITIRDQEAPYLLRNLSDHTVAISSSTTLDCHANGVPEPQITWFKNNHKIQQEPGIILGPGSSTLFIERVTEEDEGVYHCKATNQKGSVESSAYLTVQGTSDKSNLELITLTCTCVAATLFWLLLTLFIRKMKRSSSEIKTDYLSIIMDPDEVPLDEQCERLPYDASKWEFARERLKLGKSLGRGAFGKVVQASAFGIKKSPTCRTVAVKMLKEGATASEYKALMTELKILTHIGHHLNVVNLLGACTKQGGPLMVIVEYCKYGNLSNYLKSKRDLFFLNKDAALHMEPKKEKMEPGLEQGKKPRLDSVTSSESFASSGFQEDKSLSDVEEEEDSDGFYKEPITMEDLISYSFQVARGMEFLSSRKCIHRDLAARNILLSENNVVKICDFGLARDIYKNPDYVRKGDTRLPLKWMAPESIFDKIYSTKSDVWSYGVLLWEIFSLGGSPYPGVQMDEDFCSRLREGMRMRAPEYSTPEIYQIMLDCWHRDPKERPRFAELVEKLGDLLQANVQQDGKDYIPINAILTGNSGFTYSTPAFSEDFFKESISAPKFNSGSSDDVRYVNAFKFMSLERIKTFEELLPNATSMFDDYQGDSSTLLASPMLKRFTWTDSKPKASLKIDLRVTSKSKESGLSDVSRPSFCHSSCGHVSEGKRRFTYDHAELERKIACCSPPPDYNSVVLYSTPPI
Sequence of Cytochrome P450 2D6 (P10635 whole entry): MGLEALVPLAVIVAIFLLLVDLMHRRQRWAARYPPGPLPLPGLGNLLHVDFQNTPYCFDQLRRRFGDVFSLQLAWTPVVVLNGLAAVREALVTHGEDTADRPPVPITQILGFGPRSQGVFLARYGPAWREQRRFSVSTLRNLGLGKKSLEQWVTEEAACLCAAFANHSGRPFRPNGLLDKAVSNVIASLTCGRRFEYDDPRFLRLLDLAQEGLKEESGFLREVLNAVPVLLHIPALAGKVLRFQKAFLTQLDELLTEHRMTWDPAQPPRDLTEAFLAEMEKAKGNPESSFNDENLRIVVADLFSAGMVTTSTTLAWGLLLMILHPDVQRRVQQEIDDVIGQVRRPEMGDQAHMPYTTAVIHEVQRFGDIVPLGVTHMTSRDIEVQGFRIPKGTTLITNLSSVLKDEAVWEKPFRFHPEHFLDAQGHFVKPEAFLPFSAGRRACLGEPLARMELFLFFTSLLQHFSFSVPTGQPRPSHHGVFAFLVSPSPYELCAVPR
Sequence of Cytochrome P450 3A4 (P08684 whole entry): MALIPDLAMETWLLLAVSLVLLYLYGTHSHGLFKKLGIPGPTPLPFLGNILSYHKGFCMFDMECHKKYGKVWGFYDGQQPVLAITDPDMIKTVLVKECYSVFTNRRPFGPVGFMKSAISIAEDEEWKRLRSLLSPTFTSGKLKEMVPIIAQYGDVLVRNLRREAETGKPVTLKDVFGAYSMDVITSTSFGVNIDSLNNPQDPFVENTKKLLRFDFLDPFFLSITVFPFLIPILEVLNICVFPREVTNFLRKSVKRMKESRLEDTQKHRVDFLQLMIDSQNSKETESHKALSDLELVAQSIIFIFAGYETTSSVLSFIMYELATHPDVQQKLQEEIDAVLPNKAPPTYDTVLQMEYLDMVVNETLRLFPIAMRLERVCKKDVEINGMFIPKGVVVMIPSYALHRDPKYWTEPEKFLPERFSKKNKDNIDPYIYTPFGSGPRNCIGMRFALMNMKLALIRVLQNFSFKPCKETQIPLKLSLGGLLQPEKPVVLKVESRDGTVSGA

COc1cc2nccc(Oc3ccc4c(C(=O)Nc5ccc(Cl)cc5)cccc4c3)c2cc1OC
microsomal CLint [1]: 50 µL/min/mg
microsomal CLint [2]: 30 µL/min/mg
clearance [3]: 3.33 mL/min/kg
bioavailability [4]: 21%
Stability (Liver microsomes): < 100 pM/mg/h
fraction unbound [5]: 0.02
fraction unbound [6]: 0.014
fraction unbound [7]: 0.026
IC50 [8]: 20 nM
IC50 [9]: > 20000 nM
IC50 (Aurora kinase B): > 1000 nM
IC50 [10]: 40 nM
IC50 (NIH3T3): 25 nM
IC50 (NHDF): 25 nM
IC50 (HUVEC [11]): > 1140 nM
IC50 [12]: > 20000 nM
concentration (Plasma [13]): 160 nM
concentration (Plasma [14]): 490 nM
concentration (Plasma [15]): 1500 nM
concentration (Plasma [16]): 4000 nM
concentration (Plasma [17]): 10300 nM
ED50 (Rattus norvegicus): 0.1 mg/kg
AUC [18]: 1.3 µM·h
Cmax [19]: 200 nM
inhibition in vivo at 3 mg/kg (Mus musculus): 74%
AUC(0-t) at 24 h [20]: 6.2 µM·h
AUC(0-t) at 24 h [21]: 24.1 µM·h
AUC(0-t) at 24 h [22]: 48.4 µM·h
Cmax [23]: 500 nM
Cmax [24]: 2200 nM
Cmax [25]: 3900 nM
Vd [26]: 7.3 L/kg
half-life [27]: 24 h
MRT [28]: 31 h
Cmax [29]: 420 ng/mL
AUC(0-t) at 24 h [30]: 5250 ng·h/mL
IC50 [31]: 1100 nM
IC50 [32]: > 1000 nM
IC50 (Cytochrome P450 3A4): > 50000 nM
IC50 (Cytochrome P450 2D6): > 50000 nM
IC50 [33]: 38 nM
IC50 [34]: 0.5 nM
IC50 [35]: 2 nM
IC50 (HUVEC [36]): > 1100 nM

COc1cc2nccc(Oc3ccc4c(C(=O)Nc5ccc(Cl)cc5)cccc4c3)c2cc1OC.CS(=O)(=O)O
clearance [37]: 3.33 mL/min/kg
Vd [38]: 4.8 L/kg
half-life [39]: 17 h
MRT [40]: 23 h
bioavailability [41]: 24%
clearance [42]: 1.67 mL/min/kg
Vd [43]: 6.7 L/kg
half-life [44]: 48 h
MRT [45]: 66 h
bioavailability [46]: 72%
clearance [47]: 3.33 mL/min/kg
Vd [48]: 4.3 L/kg
half-life [49]: 56 h
MRT [50]: 22 h
bioavailability [51]: 62%
